Results: the NIST ThermoML archive (doi:10.1021/je060271a)

Conditions: 343.15 K, Liquid, Vibrating tube method

CCCCCCC(=O)OCC(COC(=O)CCCCCC)(COC(=O)CCCCCC)COC(=O)CCCCCC [pentaerythritol tetraheptanoate]
Conditions | mass density [kg/m3]
5115 kPa | 944.4
5119.1 kPa | 944.5
5124.1 kPa | 944.5
5128.3 kPa | 944.5
5132.4 kPa | 944.4
5136.3 kPa | 944.4
5141.1 kPa | 944.4
5145.3 kPa | 944.4
5149.6 kPa | 944.5
5153.6 kPa | 944.5
5158.6 kPa | 944.5
5162.9 kPa | 944.5
5167.1 kPa | 944.5
5172.1 kPa | 944.5
5176 kPa | 944.4
5180 kPa | 944.5
5184.4 kPa | 944.4
5189.9 kPa | 944.6
5193.9 kPa | 944.4
5198 kPa | 944.4
5202.4 kPa | 944.7
5206.5 kPa | 944.5
5211.7 kPa | 944.6
5216 kPa | 944.6
5220.2 kPa | 944.5
5225 kPa | 944.6
5229.2 kPa | 944.5
5233.5 kPa | 944.5
5237.6 kPa | 944.5
5243.2 kPa | 944.5
5247.3 kPa | 944.7
5251.8 kPa | 944.5
5256 kPa | 944.7
5260.8 kPa | 944.6
5265 kPa | 944.6
5269.7 kPa | 944.6
5273.8 kPa | 944.5
5277.8 kPa | 944.7
5281.4 kPa | 944.6
5285 kPa | 944.6
5291.6 kPa | 944.7
5300.3 kPa | 944.5
5308.9 kPa | 944.7
5319.5 kPa | 944.7
5328.6 kPa | 944.7
5337.3 kPa | 944.6
5348.2 kPa | 944.6
5357.2 kPa | 944.7
5366.4 kPa | 944.6
5375.7 kPa | 944.6
5386.4 kPa | 944.6
5395.4 kPa | 944.7
5406.3 kPa | 944.9
5415.5 kPa | 944.8
5425 kPa | 944.8
5434.7 kPa | 944.7
5444 kPa | 944.7
5453.7 kPa | 944.7
5464.8 kPa | 944.8
5473.8 kPa | 944.7
5485 kPa | 945
5494.5 kPa | 944.7
5504.2 kPa | 944.8
5513.7 kPa | 944.8
5525.5 kPa | 944.8
5535 kPa | 944.7
5544.7 kPa | 944.8
5554.7 kPa | 944.8
5568 kPa | 944.8
5576.2 kPa | 944.7
5587.6 kPa | 944.8
5597.4 kPa | 944.8
5607.3 kPa | 944.8
5619.2 kPa | 944.8
5629.1 kPa | 944.8
5639.1 kPa | 944.9
5650.9 kPa | 944.9
5660.8 kPa | 944.8
5671.1 kPa | 944.8
5681.5 kPa | 944.7
5694 kPa | 944.9
5705.1 kPa | 945
5715.3 kPa | 944.9
5725.9 kPa | 945
5737.8 kPa | 944.9
5748.4 kPa | 944.8
5758.7 kPa | 945
5771 kPa | 944.9
5781.7 kPa | 944.9
5791.9 kPa | 944.9
5802.8 kPa | 944.9
5815.5 kPa | 945.1
5826.5 kPa | 945
5837.6 kPa | 945.1
5848.7 kPa | 945
5862 kPa | 945
5872.5 kPa | 944.9
5883.3 kPa | 945
5894.5 kPa | 945.1
5907.6 kPa | 945.1
5918.9 kPa | 945
5930.1 kPa | 945.1
5941.2 kPa | 945
5954.7 kPa | 945.1
5965.7 kPa | 945.3
5977 kPa | 945
5990.6 kPa | 945.1
6002 kPa | 945
6013.3 kPa | 945.2
6026.9 kPa | 945.1
6038.5 kPa | 945.2
6050.1 kPa | 945.1
6063.9 kPa | 945.1
6075.5 kPa | 945.2
6087.4 kPa | 945.2
6099.2 kPa | 945.2
6113 kPa | 945.2
6125.1 kPa | 945.2
6137.2 kPa | 945.3
6149.3 kPa | 945.1
6163.7 kPa | 945.3
6175.6 kPa | 945.3
6187.7 kPa | 945.2
6199.8 kPa | 945.2
6214.5 kPa | 945.3
6226.9 kPa | 945.3
6239.4 kPa | 945.3
6253.9 kPa | 945.3
6266.1 kPa | 945.3
6278.6 kPa | 945.3
6293.3 kPa | 945.3
6306.2 kPa | 945.3
6319 kPa | 945.5
6332 kPa | 945.3
6347 kPa | 945.4
6359.8 kPa | 945.5
6372.6 kPa | 945.4
6385.6 kPa | 945.4
6400.6 kPa | 945.4
6413.9 kPa | 945.4
6426.9 kPa | 945.3
6442.4 kPa | 945.3
6456.1 kPa | 945.4
6469 kPa | 945.5
6482.7 kPa | 945.4
6499.1 kPa | 945.6
6512.8 kPa | 945.5
6525.9 kPa | 945.5
6541.8 kPa | 945.6
6555.1 kPa | 945.6
6568.9 kPa | 945.6
6585.3 kPa | 945.5
6598.8 kPa | 945.5
6612.5 kPa | 945.5
6629.2 kPa | 945.6
6643.2 kPa | 945.5
6657.6 kPa | 945.7
6671.9 kPa | 945.5
6687.1 kPa | 945.5
6704 kPa | 945.6
6718.4 kPa | 945.6
6732.5 kPa | 945.6
6747.4 kPa | 945.7
6764.3 kPa | 945.8
6779.2 kPa | 945.8
6793.5 kPa | 945.7
6811.1 kPa | 945.6
6825.8 kPa | 945.6
6840.7 kPa | 945.8
6855.9 kPa | 945.7
6874.2 kPa | 945.8
6887.1 kPa | 945.8
6904.9 kPa | 945.9
6920.2 kPa | 945.8
6935.6 kPa | 945.8
6953.6 kPa | 945.8
6968.8 kPa | 945.9
6984.8 kPa | 945.8
7000.2 kPa | 945.7
7019.2 kPa | 946
7034.9 kPa | 945.7
7050.8 kPa | 945.8
7069.3 kPa | 945.8
7085.7 kPa | 945.9
7101.8 kPa | 945.9
7117.8 kPa | 946
7137.2 kPa | 945.9
7153.2 kPa | 946
7169.6 kPa | 945.9
7186 kPa | 945.8
7205.5 kPa | 945.9
7221.8 kPa | 946
7241.8 kPa | 946
7258.6 kPa | 946
7275.1 kPa | 945.9
7292.1 kPa | 946.1
7312.3 kPa | 946.1
7329.7 kPa | 946.2
7347 kPa | 946.1
7364.6 kPa | 946.1
7385.1 kPa | 946.1
7402.4 kPa | 946.2
7420 kPa | 946.2
7437.8 kPa | 946.2
7458.7 kPa | 946.2
7476.1 kPa | 946.2
7494.2 kPa | 946.1
7515.3 kPa | 946.3
7533.4 kPa | 946.1
7551.9 kPa | 946.3
7570.4 kPa | 946.3
7592.1 kPa | 946.3
7610.3 kPa | 946.4
7628.9 kPa | 946.4
7650.8 kPa | 946.3
7669.1 kPa | 946.3
7688.1 kPa | 946.3
7710.2 kPa | 946.3
7729.2 kPa | 946.3
7748.3 kPa | 946.4
7767.5 kPa | 946.4
7790.8 kPa | 946.4
7810.5 kPa | 946.5
7830.3 kPa | 946.5
